According to ChEMBL document CHEMBL1201862, “PubChem BioAssay data set” (2004):
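These data come from cells grown in 96-well plates and exposed to compound for 48 hours at five concentrations. GI50 is the concentration that inhibits growth by half.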 Calls of active or inactive are those of the source. No stated cut-off is given here; in the data, active = GI50 up to about 1.1 µM and inactive = higher.

Columns and labels:
Test in all cases: DTP human tumour cell line panel, 48 h
786-0 = test system: 786-0
SK-MEL-28 = test system: SK-MEL-28
SW-620 = test system: SW-620
NCI-H522 = test system: NCI-H522
HOP-92 = test system: HOP-92
U-251 = test system: U-251
MDA-N = test system: MDA-N
NCI-H226 = test system: NCI-H226
SN12C = test system: SN12C
HT-29 = test system: HT-29
SK-MEL-5 = test system: SK-MEL-5
A549 = test system: A549
IGROV-1 = test system: IGROV-1
A498 = test system: A498
MCF7 = test system: MCF7
SF-295 = test system: SF-295
OVCAR-5 = test system: OVCAR-5
NCI-H23 = test system: NCI-H23
Malme-3M = test system: Malme-3M

| SMILES | GI50 (786-0) | GI50 (SK-MEL-28) | GI50 (SW-620) | GI50 (NCI-H522) | GI50 (HOP-92) | GI50 (U-251) | GI50 (MDA-N) | GI50 (NCI-H226) | GI50 (SN12C) | GI50 (HT-29) | GI50 (SK-MEL-5) | GI50 (A549) | GI50 (IGROV-1) | GI50 (A498) | GI50 (MCF7) | GI50 (SF-295) | GI50 (OVCAR-5) | GI50 (NCI-H23) | GI50 (Malme-3M) |
| --- | --- | --- | --- | --- | --- | --- | --- | --- | --- | --- | --- | --- | --- | --- | --- | --- | --- | --- | --- |
| S=c1sc2nc(Cl)nc(Cl)c2s1 | 6.21 µM (inactive) | 16.1 µM (inactive) | 6.85 µM (inactive) | 6.84 µM (inactive) | 5.24 µM (inactive) | 7.8 µM (inactive) | 7.98 µM (inactive) | 17.5 µM (inactive) | 14.5 µM (inactive) | 8.24 µM (inactive) | 8.73 µM (inactive) | 19 µM (inactive) | 13.8 µM (inactive) | 18 µM (inactive) | 8.49 µM (inactive) | 16.7 µM (inactive) | 15.7 µM (inactive) | 16.9 µM (inactive) | 8.83 µM (inactive) |
| CSc1ncnc2c1ncn2CCC(=O)O | > 100 µM (inactive) | > 100 µM (inactive) | > 100 µM (inactive) | > 100 µM (inactive) | > 100 µM (inactive) | – | > 100 µM (inactive) | > 100 µM (inactive) | > 100 µM (inactive) | > 100 µM (inactive) | > 100 µM (inactive) | > 100 µM (inactive) | > 100 µM (inactive) | > 100 µM (inactive) | > 100 µM (inactive) | > 100 µM (inactive) | > 100 µM (inactive) | > 100 µM (inactive) | > 100 µM (inactive) |
| CC(=N/N=C/c1ccccn1)/C(C)=N/N=C(C)/C(C)=N/N=C(C)/C(C)=N/N=C(C)/C(C)=N\N=C\c1ccccn1 | > 100 µM (inactive) | > 100 µM (inactive) | > 100 µM (inactive) | > 100 µM (inactive) | > 100 µM (inactive) | > 100 µM (inactive) | > 100 µM (inactive) | > 100 µM (inactive) | > 100 µM (inactive) | > 100 µM (inactive) | > 100 µM (inactive) | > 100 µM (inactive) | > 100 µM (inactive) | > 100 µM (inactive) | > 100 µM (inactive) | > 100 µM (inactive) | > 100 µM (inactive) | > 100 µM (inactive) | > 100 µM (inactive) |
| C=CCn1c(N)c(C#N)c(C#N)c1-c1ccccc1 | > 100 µM (inactive) | – | > 100 µM (inactive) | > 100 µM (inactive) | > 100 µM (inactive) | > 100 µM (inactive) | > 100 µM (inactive) | > 100 µM (inactive) | > 100 µM (inactive) | > 100 µM (inactive) | > 100 µM (inactive) | > 100 µM (inactive) | > 100 µM (inactive) | > 100 µM (inactive) | > 100 µM (inactive) | > 100 µM (inactive) | > 100 µM (inactive) | > 100 µM (inactive) | > 100 µM (inactive) |
| Cc1c2ncccc2cc2oc3ccccc3c(=O)c12 | > 100 µM (inactive) | > 100 µM (inactive) | 33.5 µM (inactive) | 31.5 µM (inactive) | 28.3 µM (inactive) | – | 63.4 µM (inactive) | 38.4 µM (inactive) | 24 µM (inactive) | 35.6 µM (inactive) | 18.2 µM (inactive) | 12.9 µM (inactive) | 4.63 µM (inactive) | 81.5 µM (inactive) | 5.11 µM (inactive) | 31.6 µM (inactive) | 16.1 µM (inactive) | 47.9 µM (inactive) | 68.4 µM (inactive) |
| CC(=O)C(O)N1C(=O)C=CC1=O (stereo unspecified) | 2.33 µM (inactive) | 10.4 µM (inactive) | 1.71 µM (inactive) | 1 µM (active) | 2.07 µM (inactive) | 17.4 µM (inactive) | 18.6 µM (inactive) | 12.9 µM (inactive) | 2.83 µM (inactive) | 16.4 µM (inactive) | 17.8 µM (inactive) | – | 21.1 µM (inactive) | 18.1 µM (inactive) | > 25 µM (inactive) | 18.3 µM (inactive) | 17.1 µM (inactive) | 15.9 µM (inactive) | 2.19 µM (inactive) |
| CCOC(=O)/C(=C\c1ccc(C#N)cc1)C(C)=O | 18.4 µM (inactive) | – | 21.2 µM (inactive) | 11.5 µM (inactive) | 17.4 µM (inactive) | 16.2 µM (inactive) | 31.1 µM (inactive) | 35.1 µM (inactive) | 25.2 µM (inactive) | 33.4 µM (inactive) | 21.5 µM (inactive) | 60.8 µM (inactive) | 16.8 µM (inactive) | 13.3 µM (inactive) | 19.9 µM (inactive) | 34.5 µM (inactive) | 30.8 µM (inactive) | 17.5 µM (inactive) | 15.2 µM (inactive) |
| COc1ccc(N2C(=O)C(C)SC2c2cc3cc(Br)ccc3nc2Cl)cc1 (stereo unspecified) | 45.8 µM (inactive) | 38.1 µM (inactive) | 30.4 µM (inactive) | 21.3 µM (inactive) | 22.9 µM (inactive) | – | 28.5 µM (inactive) | 55.3 µM (inactive) | 35.2 µM (inactive) | 32.4 µM (inactive) | 36.1 µM (inactive) | 12.4 µM (inactive) | 7.93 µM (inactive) | 46.8 µM (inactive) | 33.2 µM (inactive) | 33.1 µM (inactive) | 57.9 µM (inactive) | 33.6 µM (inactive) | 82.4 µM (inactive) |
